Laboratory results: patent publication US8889704B2 (Array BioPharma Inc., priority 2011, dated 2014)
Where a name gives a salt, the structure may show the parent alone.

Legend:
Format in all cases: biochemical
PIM-1 = PIM-1 (Homo sapiens, UniProt P11309); assay: Enzyme PIM-1 Assay ([33P]ATP incorporation into PIM2tide, filter plate); conditions: averaged IC50; 35 μM ATP, 7.5 μM PIM2tide, 0.25 nM PIM-1, 60 min at 22° C.
Experimental: (§1) The assay for the determination of PIM-1 activity is based on the incorporation of [^33P]PO4 from [γ-^33P]ATP into PIM2tide substrate and capture of the radiolabeled peptide onto a Whatman P81 (phosphocellulose) filter plate. The amount of radiolabeled product is then measured by liquid scintillation counting. The final buffer conditions were as follows: 20 mM K^+MOPS, pH 7.4, 10 mM MgCl2, 0.005% Tween-20, 1 mM DTT. Assay mixtures contained 35 μM [γ-^33P]ATP (20 μCi/mL), 7.5 μM PIM2tide and 0.25 nM PIM-1 in a total volume of 50 μL. Incubations were carried out for 60 min at 22° C. and quenched with 75 μL of 200 mM H3PO4, filtered through a Whatman P81 plate and washed (1×200 μL and 5×100 μL) with 200 mM H3PO4. Fifty μL of liquid scintillation cocktail were then added per well, and the plate was counted for 30 s/well using a TopCount NXT.
(§2) Compounds were prepared at 50× the final concentration in DMSO by conducting 3-fold serial dilutions from a 500-μM intermediate dilution to give a 10-point dosing curve having a high dose of 10 μM. One-μL aliquots of these were then transferred to the assay mixtures above to give a final concentration of DMSO of 2%. A standard or reference compound was typically included on each assay plate to validate that plate. For each plate, percent of control (POC) values were calculated for each well. IC50 values were estimated from the POC values using a standard 4-parameter logistic model. The IC50 is defined as the concentration of inhibitor at which the POC equals 50 for the fitted curve.

[1] = biological target: T1, GST-tagged recombinant full-length human Pim-2 (Homo sapiens, UniProt Q9P1W9); assay: PIM-2 Assay (as Example A); conditions: averaged IC50; 4 μM ATP, 1.0 μM PIM2tide, 1.5 nM Pim-2
T1 construct: GST-tagged recombinant full-length human Pim-2; GST
T1 sequence (Q9P1W9 whole entry): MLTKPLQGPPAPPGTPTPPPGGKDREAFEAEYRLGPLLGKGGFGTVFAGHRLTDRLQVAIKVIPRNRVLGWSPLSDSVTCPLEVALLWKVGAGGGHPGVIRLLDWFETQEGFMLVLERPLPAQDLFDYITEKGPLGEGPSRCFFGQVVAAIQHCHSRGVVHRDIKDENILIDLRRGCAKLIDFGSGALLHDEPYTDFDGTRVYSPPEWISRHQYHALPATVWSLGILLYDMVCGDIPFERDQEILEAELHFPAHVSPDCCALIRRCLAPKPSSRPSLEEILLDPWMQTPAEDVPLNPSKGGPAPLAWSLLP
Experimental: as §1, §2
Assay was performed as described in Example A, using 4 μM [γ-^33P]ATP (20 μCi/mL), 1.0 μM PIM2tide and 1.5 nM GST-tagged recombinant full-length human Pim-2 in place of PIM-1.

recombinant rat PIM-3 = recombinant rat PIM-3 (Rattus norvegicus, UniProt O70444); assay: PIM-3 Assay (as Example A); conditions: averaged IC50; 30 μM ATP, 3.75 μM PIM2tide, 0.5 nM PIM-3
Experimental: as §1, §2
Assay was performed as described in Example A, using 30 μM [γ-^33P]ATP (20 μCi/mL), 3.75 μM PIM2tide and 0.5 nM recombinant rat PIM-3 in place of PIM-1.

Sequence of PIM-1 (P11309 whole entry, species assumed): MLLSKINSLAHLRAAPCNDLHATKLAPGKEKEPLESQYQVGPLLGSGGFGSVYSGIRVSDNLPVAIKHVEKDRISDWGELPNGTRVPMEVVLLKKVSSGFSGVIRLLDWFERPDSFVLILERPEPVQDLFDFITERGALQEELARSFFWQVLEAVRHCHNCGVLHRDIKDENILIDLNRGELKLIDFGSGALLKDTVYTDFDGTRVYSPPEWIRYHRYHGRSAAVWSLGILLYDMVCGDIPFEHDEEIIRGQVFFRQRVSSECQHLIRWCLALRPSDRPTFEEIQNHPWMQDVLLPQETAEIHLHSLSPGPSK

Row | SMILES | IC50 (PIM-1) [nM] | IC50 [1] [nM] | IC50 (recombinant rat PIM-3) [nM]
1 | N[C@H]1CCN([C@H](c2ccc3nnc(-c4ccc5cccc(OCC6CC6)c5n4)n3c2)C(F)(F)F)C1 (single isomer, unassigned) [Example 11, dihydrochloride] | 0.2 | 75 | 1.1
2 | N[C@H]1CCN([C@@H](c2ccc3nnc(-c4ccc5ccc(C6CC6)cc5n4)n3c2)C(F)(F)F)C1 (single isomer, unassigned) [Example 12] | 0.4 | 51 | 1.1
3 | Cn1cc(-c2ccc3ccc(-c4nnc5ccc([C@@H](N6CC[C@H](N)C6)C(F)(F)F)cn45)nc3c2)cn1 (single isomer, unassigned) [Example 15, tri-hydrochloride] | 0.09 | 59 | 0.3
4 | N[C@@H]1CCN([C@H](c2ccc3nnc(-c4ccc5cccc(OCC6CC6)c5n4)n3c2)C(F)(F)F)C1 (single isomer, unassigned) [Example 22] | 0.25 | 145 | 2.9
5 | CC(C)Oc1cccc2ccc(-c3nnc4ccc([C@@H](N5CC[C@@](N)(CF)C5)C(F)(F)F)cn34)nc12 (single isomer, unassigned) [Example 154, dihydrochloride] | 0.58 | > 100 | 4.2
6 | COc1cccc2ccc(-c3nnc4ccc([C@@H](N5CCC(C)(O)C5)C(F)(F)F)cn34)nc12 (single isomer, unassigned; diastereomer 1) [Example 193, hydrochloride] | 13 | > 1000 | 67
7 | CC(C)Oc1cccc2ccc(-c3nnc4ccc([C@H](N5CCC(C)(O)C5)C(F)(F)F)cn34)nc12 (single isomer, unassigned; diastereomer 1) [Example 199] | 18.7 | > 1000 | 30
8 | CCOc1cc2nc(-c3nnc4ccc([C@@H](N5CCC(N)(CC)C5)C(F)(F)F)cn34)ccc2cc1F (single isomer, unassigned; diastereomer 1) [Example 243, dihydrochloride] | 0.54 | 728 | 2.1
9 | CCOc1cc2nc(-c3nnc4ccc([C@H](N5CCC(N)(CC)C5)C(F)(F)F)cn34)ccc2cc1F (single isomer, unassigned; diastereomer 1) [Example 251, dihydrochloride] | 0.75 | 102 | 0.8
10 | N[C@H]1CCN([C@H](c2ccc3nnc(-c4ccc5ccc(O[C@H]6CCC[C@@H]6O)cc5n4)n3c2)C(F)(F)F)C1 (single isomer, unassigned; diastereomer 1) [Example 319, di-hydrochloride] | 0.11 | 112 | 0.3
11 | COc1cccc2ccc(-c3nnc4ccc([C@@H](N5CCC(C)(O)C5)C(F)(F)F)cn34)nc12 (single isomer, unassigned; diastereomer 2) [Example 194, hydrochloride] | > 100 | > 1000 | > 100
12 | CC1(O)CCN([C@H](c2ccc3nnc(-c4ccc5cccc(C(C)(C)C)c5n4)n3c2)C(F)(F)F)C1 (single isomer, unassigned; diastereomer 2) [Example 196, hydrochloride] | 42.3 | > 1000 | > 100
13 | CC(C)(C)OC(=O)N[C@@H]1CCN([C@@H](c2ccc3nnc(-c4ccc5ccc(C(=O)O)cc5n4)n3c2)C(F)(F)F)C1 [Example 85, 2-(6-((S)-1-((R)-3-(tert-butoxycarbonylamino)pyrrolidin-1-yl)-2,2,2-trifluoroethyl)-[1,2,4]triazolo[4,3-a]pyridin-3-yl)quinoline-7-carboxylic acid] |  |  | 18

Next, values leading:

Row | IC50 (PIM-1) [nM] | IC50 [1] [nM] | IC50 (recombinant rat PIM-3) [nM] | SMILES
14 | 1.84 | 306 | 12 | N[C@H]1CCN([C@@H](c2ccc3nnc(-c4ccc5cccc(OCC6CC6)c5n4)n3c2)C(F)(F)F)C1 (single isomer, unassigned) [Example 10, dihydrochloride]
15 | 0.31 | 121 | 1 | N[C@H]1CCN([C@H](c2ccc3nnc(-c4ccc5ccc(C6CC6)cc5n4)n3c2)C(F)(F)F)C1 (single isomer, unassigned) [Example 13]
16 | 0.15 | 76 | 0.4 | Cn1cc(-c2ccc3ccc(-c4nnc5ccc([C@H](N6CC[C@H](N)C6)C(F)(F)F)cn45)nc3c2)cn1 (single isomer, unassigned) [Example 14, tri-hydrochloride]
17 | 2.85 | 412 | 38 | N[C@@H]1CCN([C@@H](c2ccc3nnc(-c4ccc5cccc(OCC6CC6)c5n4)n3c2)C(F)(F)F)C1 (single isomer, unassigned) [Example 23]
18 | 1.12 | > 100 | 30 | CC(C)Oc1cccc2ccc(-c3nnc4ccc(C(N5C[C@@H](O)[C@H](O)C5)C(F)(F)F)cn34)nc12 (single isomer, unassigned) [Example 82]
19 | 0.34 | 45 | 1.3 | CC(C)Oc1cccc2ccc(-c3nnc4ccc([C@@H](N5CC[C@](N)(CF)C5)C(F)(F)F)cn34)nc12 (single isomer, unassigned) [Example 155, dihydrochloride]
20 | 6.65 | > 100 | 36 | COc1cccc2ccc(-c3nnc4ccc([C@@H](N5CC[C@@](N)(CF)C5)C(F)(F)F)cn34)nc12 (single isomer, unassigned) [Example 169]
21 | 0.95 | > 100 | 6.2 | COc1cccc2ccc(-c3nnc4ccc([C@@H](N5CC[C@](N)(CF)C5)C(F)(F)F)cn34)nc12 (single isomer, unassigned) [Example 170]
22 | 21.3 | > 1000 | 53 | CC1(O)CCN([C@H](c2ccc3nnc(-c4ccc5cccc(C(C)(C)C)c5n4)n3c2)C(F)(F)F)C1 (single isomer, unassigned; diastereomer 1) [Example 195, hydrochloride]
23 | 1.86 | 137 | 3.4 | Cn1cc(-c2ccc3ccc(-c4nnc5ccc([C@H](N6CCC(C)(O)C6)C(F)(F)F)cn45)nc3c2)cn1 (single isomer, unassigned; diastereomer 1) [Example 200]
24 | 6.62 | > 1000 | 7.9 | CC(C)Oc1cc(F)cc2ccc(-c3nnc4ccc([C@H](N5CCC(C)(O)C5)C(F)(F)F)cn34)nc12 (single isomer, unassigned; diastereomer 1) [Example 202, hydrochloride]
25 | 4.2 | > 1000 | 21 | CCC1(N)CCN([C@H](c2ccc3nnc(-c4ccc5cccc(OC)c5n4)n3c2)C(F)(F)F)C1 (single isomer, unassigned; diastereomer 1) [Example 242, dihydrochloride]
26 | 2.77 | 861 | 11 | CCC1(N)CCN([C@@H](c2ccc3nnc(-c4ccc5cccc(OC)c5n4)n3c2)C(F)(F)F)C1 (single isomer, unassigned; diastereomer 1) [Example 250, dihydrochloride]
27 | 0.29 | > 100 |  | COc1cc(F)cc2ccc(-c3nnc4ccc([C@@H](N5CC[C@H](N)C5)C(F)(F)F)cn34)nc12 [Example 115, (S)-1-((R)-2,2,2-trifluoro-1-(3-(6-fluoro-8-methoxyquinolin-2-yl)-[1,2,4]triazolo[4,3-a]pyridin-6-yl)ethyl)pyrrolidin-3-amine hydrochloride]
28 | 0.16 | 77 |  | CCOc1cc2nc(-c3nnc4ccc([C@@H](N5CC[C@H](N)C5)C(F)(F)F)cn34)ccc2cc1F [Example 133, (S)-1-((R)-1-(3-(7-ethoxy-6-fluoroquinolin-2-yl)-[1,2,4]triazolo[4,3-a]pyridin-6-yl)-2,2,2-trifluoroethyl)pyrrolidin-3-amine hydrochloride]
29 |  | 50 |  | COCCc1cc2nc(-c3nnc4ccc([C@H](N5CC[C@](C)(N)C5)C(F)(F)F)cn34)ccc2cc1F [Example 311, (S)-3-methyl-1-((S)-2,2,2-trifluoro-1-(3-(6-fluoro-7-(2-methoxyethyl)quinolin-2-yl)-[1,2,4]triazolo[4,3-a]pyridin-6-yl)ethyl)pyrrolidin-3-amine]
